Experimental findings from ChEMBL document CHEMBL1201862, “PubChem BioAssay data set” (2004) are described below.

Molecules are shown by their SMILES. Activity calls are given as the source filed them.

Assay [1] has as its target T1, Sentrin-specific protease 6 (Homo sapiens, UniProt Q9GZR1).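 Also: Luminescence-based dose-response confirmatory assay of SENP6 inhibition, following up an ultra-high-throughput screen.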
T1 sequence (Q9GZR1 whole entry): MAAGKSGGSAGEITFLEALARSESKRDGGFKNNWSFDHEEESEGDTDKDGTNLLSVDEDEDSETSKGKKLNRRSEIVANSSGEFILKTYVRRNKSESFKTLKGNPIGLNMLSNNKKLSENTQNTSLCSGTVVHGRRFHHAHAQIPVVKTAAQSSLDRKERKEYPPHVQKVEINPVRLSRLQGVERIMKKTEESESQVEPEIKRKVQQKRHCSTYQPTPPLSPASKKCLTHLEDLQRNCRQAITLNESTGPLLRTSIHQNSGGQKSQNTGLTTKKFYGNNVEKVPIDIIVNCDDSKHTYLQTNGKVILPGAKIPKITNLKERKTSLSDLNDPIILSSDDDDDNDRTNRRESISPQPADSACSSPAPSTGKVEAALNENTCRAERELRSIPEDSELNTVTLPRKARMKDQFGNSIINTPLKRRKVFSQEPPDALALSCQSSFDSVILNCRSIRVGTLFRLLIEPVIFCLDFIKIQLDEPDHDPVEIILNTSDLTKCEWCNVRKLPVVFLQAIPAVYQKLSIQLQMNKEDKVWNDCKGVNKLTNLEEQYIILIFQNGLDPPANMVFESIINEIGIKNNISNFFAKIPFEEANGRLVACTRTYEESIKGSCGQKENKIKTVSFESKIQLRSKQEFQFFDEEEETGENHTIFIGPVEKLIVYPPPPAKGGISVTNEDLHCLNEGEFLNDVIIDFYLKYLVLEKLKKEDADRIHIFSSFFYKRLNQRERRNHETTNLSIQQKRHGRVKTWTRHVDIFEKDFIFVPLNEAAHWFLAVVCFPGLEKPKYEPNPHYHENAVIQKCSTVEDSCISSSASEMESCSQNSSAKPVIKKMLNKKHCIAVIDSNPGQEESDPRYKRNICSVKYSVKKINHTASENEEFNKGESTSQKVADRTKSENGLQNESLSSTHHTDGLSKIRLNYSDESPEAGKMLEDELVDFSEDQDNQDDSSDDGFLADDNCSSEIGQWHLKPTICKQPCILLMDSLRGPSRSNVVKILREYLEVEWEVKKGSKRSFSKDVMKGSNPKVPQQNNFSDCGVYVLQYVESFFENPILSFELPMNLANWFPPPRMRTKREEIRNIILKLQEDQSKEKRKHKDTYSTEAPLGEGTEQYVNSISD
Format: functional.

For a further assay, the target named is T2, Protein RecA (Mycobacterium tuberculosis, UniProt P9WHJ3).
T2 sequence (P9WHJ3 whole entry): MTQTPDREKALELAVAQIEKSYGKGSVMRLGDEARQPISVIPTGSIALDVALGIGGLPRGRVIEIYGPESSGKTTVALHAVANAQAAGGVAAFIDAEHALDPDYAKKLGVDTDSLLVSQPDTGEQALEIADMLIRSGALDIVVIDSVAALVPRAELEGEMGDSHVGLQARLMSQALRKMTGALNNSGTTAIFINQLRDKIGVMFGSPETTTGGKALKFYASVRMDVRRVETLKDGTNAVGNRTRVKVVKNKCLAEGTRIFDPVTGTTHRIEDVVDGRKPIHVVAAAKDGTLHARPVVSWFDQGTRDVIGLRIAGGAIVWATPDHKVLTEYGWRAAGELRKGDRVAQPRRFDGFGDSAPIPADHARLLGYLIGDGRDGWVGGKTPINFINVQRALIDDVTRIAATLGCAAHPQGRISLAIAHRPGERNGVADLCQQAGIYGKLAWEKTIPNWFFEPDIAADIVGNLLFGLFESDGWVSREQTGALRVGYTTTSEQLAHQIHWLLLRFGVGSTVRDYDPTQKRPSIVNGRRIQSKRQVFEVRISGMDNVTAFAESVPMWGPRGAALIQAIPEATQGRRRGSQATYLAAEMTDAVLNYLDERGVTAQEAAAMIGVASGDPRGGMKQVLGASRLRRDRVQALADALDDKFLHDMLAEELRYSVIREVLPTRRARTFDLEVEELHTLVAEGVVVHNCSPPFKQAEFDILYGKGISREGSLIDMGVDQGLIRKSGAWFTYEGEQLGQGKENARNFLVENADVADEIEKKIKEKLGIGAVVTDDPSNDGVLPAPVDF
The experiment in a line: Fluorescence Cell-Free Homogeneous Dose Retest to Identify Inhibitors of RecA-Intein Splicing Activity. [Related pubchem assays (depositor defined):AID2097, AID2223, AID489010, AID492950]. It is filed as functional.

The target of assay [2] is T3, Tyrosyl-DNA phosphodiesterase 2 (Homo sapiens, UniProt O95551).
T3 sequence (O95551 whole entry): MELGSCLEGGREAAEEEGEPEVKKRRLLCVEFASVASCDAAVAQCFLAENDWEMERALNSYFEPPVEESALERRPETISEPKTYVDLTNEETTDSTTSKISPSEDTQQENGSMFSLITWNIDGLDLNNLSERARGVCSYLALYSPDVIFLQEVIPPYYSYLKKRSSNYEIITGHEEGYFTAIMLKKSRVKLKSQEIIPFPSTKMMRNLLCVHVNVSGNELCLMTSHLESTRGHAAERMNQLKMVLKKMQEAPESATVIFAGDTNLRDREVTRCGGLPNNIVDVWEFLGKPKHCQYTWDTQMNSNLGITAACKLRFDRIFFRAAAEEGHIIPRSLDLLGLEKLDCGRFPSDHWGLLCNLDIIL
Briefly: potency against TDP2 phosphodiesterase activity – biochemical, epi absorbance, IC50, dose response (AID 743297).

A word on the IC50: it is the midpoint of a concentration-inhibition curve. Consider `Cc1ccc(C(=O)NNc2cc(N3CCCC3)nc(N3CCCC3)n2)cc1`, for which the 50% inhibitory concentration (IC50) in assay [1] is 838 nM (active).
Turning to `Cc1cc(/C=C2\SC(=S)N(C)C2=O)c(C)n1-c1ccc(O)cc1`, the IC50 in assay [1] is 4660 nM (active).
As usually defined, the EC50 is the concentration giving half of the maximal effect. For the molecule `COC(=O)c1cccc(-c2ccc(C(c3c(C)n[nH]c3O)c3c(C)n[nH]c3O)o2)c1`, the EC50 on Protein RecA is 175 nM (active). For the same molecule, the IC50 in assay [2] is > 128000 nM (inactive).
Consider `O=C1/C(=N\c2cccc(O)c2)C(N2CCCCC2)=C(O)c2ccccc21`, for which, on Protein RecA, the EC50 was 364 nM (active). Further, the IC50 in assay [2] was > 42800 nM (inactive).
